The source of these data is article PMC7316994, “In Vitro Pharmacological Profile of a New Small Molecule Bradykinin B2 Receptor Antagonist” (Frontiers in Pharmacology, 2020).

Assay [1] has as its target T1, dog B2 receptor (Canis lupus familiaris, UniProt Q9BDQ4).
T1 sequence (Q9BDQ4 1-392): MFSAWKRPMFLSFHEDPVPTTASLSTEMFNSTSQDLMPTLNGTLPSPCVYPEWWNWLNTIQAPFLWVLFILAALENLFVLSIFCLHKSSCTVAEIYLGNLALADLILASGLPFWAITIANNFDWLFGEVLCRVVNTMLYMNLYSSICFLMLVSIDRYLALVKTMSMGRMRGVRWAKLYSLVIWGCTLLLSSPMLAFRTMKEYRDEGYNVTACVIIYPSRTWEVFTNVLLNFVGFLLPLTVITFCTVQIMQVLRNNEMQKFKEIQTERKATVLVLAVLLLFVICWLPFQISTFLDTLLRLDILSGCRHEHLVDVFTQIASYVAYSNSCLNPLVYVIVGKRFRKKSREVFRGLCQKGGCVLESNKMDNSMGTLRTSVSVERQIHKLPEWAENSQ
The experiment in a line: Ca^2+ mobilization assay, HEK293T cells. The class given is cell-based.

The target of assay [2] is T2, prostanoid TP receptor (Homo sapiens, UniProt P21731).
T2 construct: endogenous human prostanoid TP receptors in the umbilical vein model; from tissue; host or cells: human umbilical vein rings
Description: umbilical vein, U-46619-induced contraction. Conditions: Compound 2 10 μM; Compound 3 1 μM. From the text: The local ethics committee (CHU de Québec-Université Laval) had approved the project (File no. 2017-3720). Umbilical cords were obtained following elective caesarean sections; all problematic deliveries are excluded. Informed consent was obtained from the mothers. The cords were transported from the maternity ward to the laboratory in sterile Hank's balanced salt solution containing penicillin and streptomycin. Segments of umbilical veins were dissected carefully from the cords and a metal rod was inserted in the lumen. Excess connective tissue was excised and rings (2–3 mm wide) were cut. Rings of umbilical veins were suspended in 5-mL organ chambers containing oxygenated (95% O2, 5% CO2) and warmed (37°C) Krebs' solution between a metal hook and a thread loop. This solution had the following composition: NaCl 117.5 mM, KCl 4.7 mM, KH2PO4 1.2 mM, MgSO4 1.18 mM, CaCI2 2.5 mM, NaHCO3 25.0 mM, and D-glucose 5.5 mM. A baseline of one gram-weight was applied to these preparations. Changes of tension were recorded by using isometric transducers (model 52-9545, Harvard Bioscience, South Natick MA). Eight tissue baths are operated in parallel.
For this purpose, contractile responses to serotonin, acting on the 5-HT2A receptor, and U-46619, acting at the prostanoid TP receptor, were measured ([Rogines-Velo et al., 2002]; [Daray et al., 2003]).

Assay [3] addresses Chemokine CXCR2 (IL-8RB) (Homo sapiens, UniProt P25025). The experiment in a line: radioligand binding (Table S2). Conditions: [125I] IL-8, Human recombinant CHO-K1 cells.
Assay [4] has as its target T3, Corticotropin-releasing hormone receptor CRF1 (Homo sapiens, UniProt P34998).
T3 construct: host or cells: CHO cells
The experiment in a line: radioligand binding (Table S2). Conditions: [125I] Sauvagine, Human recombinant CHO cells.

Assay [5] addresses T4, Neurokinin NK3 (Homo sapiens, UniProt P29371).
T4 construct: host or cells: CHO cells
T4 sequence (P29371 1-465): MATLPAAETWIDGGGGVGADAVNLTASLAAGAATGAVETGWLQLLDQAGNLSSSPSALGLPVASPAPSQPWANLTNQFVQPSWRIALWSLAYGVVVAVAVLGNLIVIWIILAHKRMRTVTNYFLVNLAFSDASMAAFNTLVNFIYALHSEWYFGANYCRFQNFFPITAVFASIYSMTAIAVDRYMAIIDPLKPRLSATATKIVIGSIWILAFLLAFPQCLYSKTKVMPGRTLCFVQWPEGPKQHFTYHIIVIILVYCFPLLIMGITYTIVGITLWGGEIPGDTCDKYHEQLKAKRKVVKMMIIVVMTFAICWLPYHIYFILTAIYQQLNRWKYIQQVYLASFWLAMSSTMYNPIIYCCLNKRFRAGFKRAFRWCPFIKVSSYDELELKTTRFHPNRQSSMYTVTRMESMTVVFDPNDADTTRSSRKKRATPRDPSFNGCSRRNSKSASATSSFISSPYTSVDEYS
The experiment in a line: radioligand binding (Table S2). Conditions: [3H] SR 142801, Human recombinant CHO cells.

Assay [6] has as its target T5, Nicotinic N neuronal α4β2 (Homo sapiens, UniProt P17787+P43681).
T5 construct: host or cells: SH-SY5Y cells
Description: radioligand binding (Table S2). Conditions: [3H] Cytisine, Human recombinant SH-SY5Y cells.

Assay [7] addresses T6, Opioid nociceptin NOP (ORL1) (Homo sapiens, UniProt P41146).
T6 construct: host or cells: HEK-293 cells
Description: radioligand binding (Table S2). Conditions: [3H] Nociceptin, Human recombinant HEK-293 cells.

Assay [8] has as its target T7, Oxytocin (Homo sapiens, UniProt P30559).
T7 construct: host or cells: Chem-1 cells
Description: radioligand binding (Table S2). Conditions: [3H] Oxytocin, Human recombinant Chem-1 cells.

Assay [9] concerns the target T8, Serotonin 5-HT2B (Homo sapiens, UniProt P41595).
T8 construct: host or cells: CHO cells
Description: radioligand binding (Table S2). Conditions: [125I] (±)DOI, Human recombinant CHO cells.

In assay [10] the target is T9, Serotonin 5-HT2C (Homo sapiens, UniProt P28335).
T9 construct: host or cells: HEK-293 cells
The experiment in a line: radioligand binding (Table S2). Conditions: [3H] Mesulergine, Human recombinant HEK-293 cells.

The target of assay [11] is Somatostatin sst1 (Homo sapiens, UniProt P30872). The experiment in a line: radioligand binding (Table S2). Conditions: [125I] Tyr11-Somatostatin 14, Human recombinant CHO-S cells.
In assay [12] the target is T10, Vasopressin V1B (Homo sapiens, UniProt P47901).
T10 construct: expressed in transfected cells; host or cells: RBL cells
Description: functional assay, intracellular [Ca2+], RBL cells (Table S2). The class given is cell-based. Conditions: read-out: % inhibition of reference agonist response @ 10 µM (antagonist effect), Vasopressin (5 nM).

Assay [13] has as its target Gamma-aminobutyric acid GABAB1B (Homo sapiens, UniProt Q9UBS5). Description: radioligand binding (Table S2). Conditions: read-out: % Inhibition @ 10 µM.

What is called pIC50 is the IC50 on a negative log10 scale, so that one unit is a factor of ten. A higher pIC50 goes with a small IC50. What is called inhibition is the drop in the measured response relative to a control, in per cent.

pIC50: −log10 of the molar value. Entries after “also recorded” stand apart in the source; their conditions may differ.

T2 sequence (P21731 whole entry): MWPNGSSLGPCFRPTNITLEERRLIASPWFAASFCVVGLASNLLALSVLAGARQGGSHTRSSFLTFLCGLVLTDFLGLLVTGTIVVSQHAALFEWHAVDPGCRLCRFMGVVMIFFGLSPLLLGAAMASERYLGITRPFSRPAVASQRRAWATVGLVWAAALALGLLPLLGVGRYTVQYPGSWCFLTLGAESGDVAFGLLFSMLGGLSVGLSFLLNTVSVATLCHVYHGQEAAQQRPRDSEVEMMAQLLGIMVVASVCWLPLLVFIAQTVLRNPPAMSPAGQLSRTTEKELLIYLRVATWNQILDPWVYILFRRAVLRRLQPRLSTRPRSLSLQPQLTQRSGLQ
T3 sequence (P34998 24-415): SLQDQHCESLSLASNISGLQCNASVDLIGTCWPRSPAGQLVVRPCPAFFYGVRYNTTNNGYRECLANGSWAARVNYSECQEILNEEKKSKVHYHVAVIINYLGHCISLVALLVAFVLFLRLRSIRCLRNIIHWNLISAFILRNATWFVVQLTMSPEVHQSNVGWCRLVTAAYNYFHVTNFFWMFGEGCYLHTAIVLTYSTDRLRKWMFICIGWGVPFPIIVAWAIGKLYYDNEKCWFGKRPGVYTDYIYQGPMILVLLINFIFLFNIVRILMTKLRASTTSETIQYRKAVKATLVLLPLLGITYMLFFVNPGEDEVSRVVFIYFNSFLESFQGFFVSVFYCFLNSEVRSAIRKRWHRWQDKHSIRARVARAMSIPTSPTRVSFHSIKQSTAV
T8 sequence (P41595 whole entry): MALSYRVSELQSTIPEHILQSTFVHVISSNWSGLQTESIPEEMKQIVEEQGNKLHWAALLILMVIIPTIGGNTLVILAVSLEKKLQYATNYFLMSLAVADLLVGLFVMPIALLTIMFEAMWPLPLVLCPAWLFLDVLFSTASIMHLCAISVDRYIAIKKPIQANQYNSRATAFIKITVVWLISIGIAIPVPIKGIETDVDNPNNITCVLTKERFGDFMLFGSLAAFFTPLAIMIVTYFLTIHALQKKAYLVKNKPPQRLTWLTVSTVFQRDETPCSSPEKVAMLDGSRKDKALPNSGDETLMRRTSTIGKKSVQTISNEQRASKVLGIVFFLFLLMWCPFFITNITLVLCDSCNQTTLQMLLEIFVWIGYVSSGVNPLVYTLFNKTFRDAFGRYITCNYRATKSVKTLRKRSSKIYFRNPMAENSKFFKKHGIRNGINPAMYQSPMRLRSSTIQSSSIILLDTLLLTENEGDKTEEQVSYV
T5 sequence (P43681 29-627 limits assumed): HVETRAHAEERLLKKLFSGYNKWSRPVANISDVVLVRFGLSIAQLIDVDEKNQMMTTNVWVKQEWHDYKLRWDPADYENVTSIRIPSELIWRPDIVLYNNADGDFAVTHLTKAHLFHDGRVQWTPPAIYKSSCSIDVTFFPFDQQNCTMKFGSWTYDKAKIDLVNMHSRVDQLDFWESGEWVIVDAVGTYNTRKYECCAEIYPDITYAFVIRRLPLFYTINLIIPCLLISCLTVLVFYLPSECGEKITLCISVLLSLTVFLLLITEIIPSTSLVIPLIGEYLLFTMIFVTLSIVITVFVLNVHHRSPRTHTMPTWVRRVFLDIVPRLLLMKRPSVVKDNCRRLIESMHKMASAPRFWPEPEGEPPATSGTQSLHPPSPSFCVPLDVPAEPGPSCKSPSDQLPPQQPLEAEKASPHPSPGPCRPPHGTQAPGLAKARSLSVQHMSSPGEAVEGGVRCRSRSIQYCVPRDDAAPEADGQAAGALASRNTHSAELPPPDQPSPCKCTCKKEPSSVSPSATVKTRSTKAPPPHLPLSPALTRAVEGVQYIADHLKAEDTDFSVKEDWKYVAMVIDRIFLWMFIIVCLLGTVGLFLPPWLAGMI
T5 sequence (P17787 26-502): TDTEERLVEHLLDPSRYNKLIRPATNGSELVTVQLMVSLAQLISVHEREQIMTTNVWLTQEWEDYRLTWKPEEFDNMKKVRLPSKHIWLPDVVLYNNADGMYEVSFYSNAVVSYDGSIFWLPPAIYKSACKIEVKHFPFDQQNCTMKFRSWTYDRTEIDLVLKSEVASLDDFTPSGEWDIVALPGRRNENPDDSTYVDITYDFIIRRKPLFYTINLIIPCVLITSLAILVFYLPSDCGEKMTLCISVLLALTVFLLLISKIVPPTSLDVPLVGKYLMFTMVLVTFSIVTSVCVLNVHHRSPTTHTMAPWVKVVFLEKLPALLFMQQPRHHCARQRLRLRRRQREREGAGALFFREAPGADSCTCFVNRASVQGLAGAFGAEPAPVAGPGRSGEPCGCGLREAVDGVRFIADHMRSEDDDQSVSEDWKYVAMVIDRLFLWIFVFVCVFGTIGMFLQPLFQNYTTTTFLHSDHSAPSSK
T9 sequence (P28335 33-458): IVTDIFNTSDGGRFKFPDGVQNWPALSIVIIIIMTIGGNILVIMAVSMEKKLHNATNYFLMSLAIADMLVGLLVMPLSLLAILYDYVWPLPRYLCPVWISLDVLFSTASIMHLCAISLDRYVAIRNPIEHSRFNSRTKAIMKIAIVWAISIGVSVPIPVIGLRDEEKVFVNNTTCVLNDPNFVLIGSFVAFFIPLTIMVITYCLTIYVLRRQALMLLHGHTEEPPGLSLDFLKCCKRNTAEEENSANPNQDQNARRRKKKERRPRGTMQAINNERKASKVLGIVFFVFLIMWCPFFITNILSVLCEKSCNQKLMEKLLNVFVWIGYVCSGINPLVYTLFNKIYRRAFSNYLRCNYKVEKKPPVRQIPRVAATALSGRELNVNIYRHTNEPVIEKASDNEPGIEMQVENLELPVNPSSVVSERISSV
T6 sequence (P41146 whole entry): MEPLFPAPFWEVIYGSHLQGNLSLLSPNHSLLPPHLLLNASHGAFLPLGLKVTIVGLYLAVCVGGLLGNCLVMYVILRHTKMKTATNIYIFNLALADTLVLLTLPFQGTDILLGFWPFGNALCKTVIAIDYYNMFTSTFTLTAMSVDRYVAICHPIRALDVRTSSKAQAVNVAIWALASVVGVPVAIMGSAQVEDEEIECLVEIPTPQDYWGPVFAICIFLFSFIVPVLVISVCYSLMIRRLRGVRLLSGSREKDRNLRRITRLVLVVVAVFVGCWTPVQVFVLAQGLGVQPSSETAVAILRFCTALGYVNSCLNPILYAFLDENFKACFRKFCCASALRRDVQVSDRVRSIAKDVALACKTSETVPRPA
Chain of Somatostatin sst1 (P30872 whole entry): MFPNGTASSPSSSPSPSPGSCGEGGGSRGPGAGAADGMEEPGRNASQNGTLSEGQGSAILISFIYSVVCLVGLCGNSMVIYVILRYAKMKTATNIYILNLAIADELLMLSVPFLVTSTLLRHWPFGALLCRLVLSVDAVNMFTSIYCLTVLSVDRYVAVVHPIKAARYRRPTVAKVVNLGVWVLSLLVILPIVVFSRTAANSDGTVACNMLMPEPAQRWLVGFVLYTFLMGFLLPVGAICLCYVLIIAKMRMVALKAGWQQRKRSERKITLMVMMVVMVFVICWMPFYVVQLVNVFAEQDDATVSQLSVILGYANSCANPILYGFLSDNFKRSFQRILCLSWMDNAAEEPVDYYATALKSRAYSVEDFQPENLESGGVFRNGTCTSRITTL
Chain of Chemokine CXCR2 (IL-8RB) (P25025 whole entry): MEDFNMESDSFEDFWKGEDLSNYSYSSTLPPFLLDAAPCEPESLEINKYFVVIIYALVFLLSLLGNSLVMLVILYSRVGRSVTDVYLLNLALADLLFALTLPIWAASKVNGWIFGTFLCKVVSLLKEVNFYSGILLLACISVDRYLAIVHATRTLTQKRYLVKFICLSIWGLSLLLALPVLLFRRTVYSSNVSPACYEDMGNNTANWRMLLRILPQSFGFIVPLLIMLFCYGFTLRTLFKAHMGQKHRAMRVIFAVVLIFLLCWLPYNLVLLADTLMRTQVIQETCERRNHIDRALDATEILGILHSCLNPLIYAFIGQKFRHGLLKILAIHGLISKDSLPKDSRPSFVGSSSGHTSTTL
Chain of Gamma-aminobutyric acid GABAB1B (Q9UBS5 1-844 isoform Q9UBS5-2): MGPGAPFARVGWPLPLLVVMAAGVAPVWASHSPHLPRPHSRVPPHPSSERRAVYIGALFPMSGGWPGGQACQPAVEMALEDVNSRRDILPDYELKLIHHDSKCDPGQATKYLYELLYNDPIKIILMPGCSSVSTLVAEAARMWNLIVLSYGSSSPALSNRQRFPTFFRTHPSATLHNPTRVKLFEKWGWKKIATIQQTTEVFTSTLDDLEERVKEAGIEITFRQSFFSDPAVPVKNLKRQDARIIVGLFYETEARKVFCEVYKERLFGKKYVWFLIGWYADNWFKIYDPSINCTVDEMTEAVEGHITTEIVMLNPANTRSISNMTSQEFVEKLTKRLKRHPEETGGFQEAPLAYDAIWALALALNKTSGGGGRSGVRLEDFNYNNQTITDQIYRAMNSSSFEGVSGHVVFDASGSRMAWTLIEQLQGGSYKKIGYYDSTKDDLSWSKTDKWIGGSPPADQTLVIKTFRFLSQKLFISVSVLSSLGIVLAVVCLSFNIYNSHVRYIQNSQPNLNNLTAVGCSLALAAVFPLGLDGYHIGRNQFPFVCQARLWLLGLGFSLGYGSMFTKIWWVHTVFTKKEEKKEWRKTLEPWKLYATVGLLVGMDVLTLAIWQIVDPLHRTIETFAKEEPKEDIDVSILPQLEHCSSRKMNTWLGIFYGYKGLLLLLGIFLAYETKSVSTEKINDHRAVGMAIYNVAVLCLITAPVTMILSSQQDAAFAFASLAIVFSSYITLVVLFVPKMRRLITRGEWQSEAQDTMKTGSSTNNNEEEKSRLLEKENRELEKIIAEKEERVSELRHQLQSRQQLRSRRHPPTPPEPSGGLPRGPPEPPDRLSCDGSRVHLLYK

`Cc1cc(-c2ncnn2C)c2cccc(OCc3c(Cl)cc(F)cc3[C@H](C)NC(=O)COC(F)F)c2n1` [Compound 3, (S)-N-(1-(3-chloro-5-fluoro-2-((2-methyl-4-(1-methyl-1H-1,2,4-triazol-5-yl)quinolin-8-yloxy)methyl)phenyl)ethyl)-2-(difluoromethoxy)acetamide]: the pIC50 in [1] is around 5.12. Besides, in [1], the Kb is around 2.7 µM. Besides, the “effect on U-46619-induced contraction” value in assay [2] was “Lack of antagonist effect; also recorded: no functional antagonism was observed”. The inhibition at 10 µM was 17% in assay [3]; 73.5% in [4]; 6.1% in assay [5]; -33.6% in [6]; 14.5% in [7]; 5% in [8]. Further, the inhibition at 10 µM in assay [9] is -8.9%; in [10], 5%; in [11] it was -2%; in [12], 7.7%; in assay [13], 9%. For the same compound, the “% Inhibition @ 10 µM” value in assay [4] is given as 74%.
